In patent US20200323954A1, “METHODS AND COMPOSITIONS FOR REDUCING GUT ISCHEMIA/REPERFUSION-INDUCED INJURY” (PanTheryx, Inc., priority 2019, published 2020):
“Also recorded” adds a separate entry of the source. Marks after values point to notes of the source that are not given here.

How the values were obtained:
[1] = test system: polarised Caco-2 monolayers; assay: Transepithelial electrical resistance (TEER) after H/R; type: cell-based, human
Experimental: (§1) Hypoxia (Ischemia)/Normoxia (Reperfusion) (H/R) protocols for in vitro studies: For all experiments AGS, Caco-2 and RIE1 cells were set up in plates as described in specific methods. Cells were used at 70-80% confluence for cell injury/death assessment and as confluent monolayers for permeability studies. To induce “ischemia”, cells were placed in a hypoxic incubator (2% 02) for specified time and to mimic reperfusion, cells were placed back in a normoxic (21% 02) incubator for specified time. All treatments were duplicated in a second set of identical plates under normoxic conditions throughout the same test period as controls. To determine optimum conditions for the in vitro studies, pilot studies were performed.
The effect of […] PSTI pre-treatment on transepithelial permeability induced by 1 hour of hypoxia followed by 24 hours of normoxia was examined using Caco-2, human polarizing colonic adenocarcinoma cells utilizing two different previously published methods according to Davison et al., 2016, Am J Nutr 2016; 104:526-536. One method determined change in transepithelial electrical resistance (TEER) and the other method analyzed the passage of horseradish peroxidase (HRP) across the epithelial layer. HRP (type II) is a non-digestible macromolecular protein (MW=44 kD) and has previously been used as a tracer in evaluation of epithelial permeability. Each monolayer had TEER and HRP permeability assessed at baseline, at the end of 1 h incubation in an hypoxic (ischemic) chamber and at the end of a 24 h reoxygenation (reperfusion) period. Measurements were taken in triplicate from 4 wells per treatment. Results are expressed as mean+/−SEM.

Caco-2 cells = assay: Apoptotic and protective pathways after H/R in Caco-2 cells; type: cell-based, human
Experimental: as §1
Cleared cell lysates from I/R experiments in Caco-2 cells were assessed for levels of the apoptotic molecules Caspase 3 (FIG. 5A), Caspase 9 (FIG. 5I), Baxα (FIG. 5B) and Bcl2 (FIG. 5C). HIF1α (FIG. 5Δ), VEGF (FIG. 5E), hSP70 (FIG. 5F), ICAM1 (FIG. 5G) and the tight junction molecules ZO1 (FIG. 5H) and Claudin1 (FIG. 5J) levels were also analysed.

RIE1 cells = assay: Apoptotic and protective pathways after H/R in RIE1 cells; type: cell-based, rat; details: RIE1, Hyp 1 h/Rep 24 h + PSTI, mean +/− SEM
Experimental: as §1

AGS cells = assay: Apoptotic and protective pathways after H/R in AGS cells; type: cell-based, human; details: Hyp 1 h/Rep 24 h + PSTI, mean +/− SEM
Experimental: as §1

DSS-induced colitis = details: rats, PSTI administration; cited from earlier work
bladder cancer = details: cited from earlier work
renal tissue = assay: Gut I/R model, renal tissue; details: kidney, I/R + PSTI 20 μg/kg ip, mean ± SEM
50% SI (clamped region) = assay: Gut ischemia-reperfusion (I/R) model, clamped 50% SI site
[2] = Caco-2, 1 h or 4 h hypoxia + 24 h normoxia, PSTI 1 h before, vs H/R without PSTI
[3] = normoxic, any of the cell lines (data not shown)
[4] = 50% SI clamped, PSTI 20 μg/kg ip, vs I/R without PSTI

In the case of “pancreatic secretory trypsin inhibitor (DSLGREAKCYNELNGCTKIYDPVCGTDGNTYPNECVLCFENRKRQTSILIQKSGPC; listed as Homo sapiens) [PSTI]”, the “reduction of the fall in TEER caused by H/R” value ([1]; Caco-2, 1 h hypoxia + 24 h normoxia, PSTI pre-treatment) was “about 50%”, the “TEER under normoxic conditions” value ([1]; Caco-2, normoxia) was “no effect on TEER or HRP permeation; also recorded: no effect on transepithelial resistance (TEER)” and the “H/R-induced change in TEER permeability, medium alone vs PSTI” value ([1]; PSTI added to the medium prior to I/R) was “significantly greater increases in permeability compared to those that had PSTI added”. The “truncation of the damaging effect of hypoxia-normoxia on epithelial integrity” value ([1]; TEER and HRP permeation, polarized monolayers) was “about 65%”, the “further increase in HIF1α above the 42% increase induced by H/R” value (Caco-2 cells; 4 h hypoxia+24 h reoxygenation, cells pre-treated with PSTI (FIG. 5D)) was 11% and the “further increase in VEGF above the 34% increase caused by H/R” value (Caco-2 cells; 4 h hypoxia+24 h reoxygenation, co-presence of PSTI (FIG. 5E)) was 15%. The “increase in hSP70 after H/R with PSTI” value (Caco-2 cells; 4 h hypoxia+24 h reoxygenation, H/R alone about 63% (FIG. 5F)) was “about 80%”, the Baxα activity (Caco-2 cells; [2]) was “significantly truncated; also recorded: significantly decreased Baxα activity” and the Bcl2 activity (Caco-2 cells; [2]) was “this effect was truncated; also recorded: significantly attenuated reduction in Bcl2 activity”. For the same substance, the “Caspase 3 activity” value (Caco-2 cells; [2]) was “significantly decreased Caspase 3 activity”, the “Caspase 9 activity” value (Caco-2 cells; [2]) was “significantly decreased Caspase 9 activity” and the Claudin1 activity (Caco-2 cells; [2]) was “significantly attenuated reduction in Claudin1 activity”. For the same substance, the HIF1α activity (Caco-2 cells; [2]) was “significantly increased HIF1α activity”, the ICAM1 activity (Caco-2 cells; [2]) was “not influenced by the presence of PSTI; also recorded: did not significantly affect ICAM1 activity” and the VEGF activity (Caco-2 cells; [2]) was “significantly increased VEGF activity”. For the same substance, the ZO1 activity (Caco-2 cells; [2]) was “significantly attenuated reduction in ZO1 activity”, the hSP70 activity (Caco-2 cells; [2]) was “significantly increased hSP70 activity” and the “truncation of the H/R-induced fall in ZO1 and Claudin1” value (Caco-2 cells; after 4 hours of hypoxia (FIG. 5H, 5J)) was “about 50%”. The “Caspase 3, 9, Baxα or Bcl2 under normoxic conditions” value (Caco-2 cells; [3]) was “no effect on Caspase 3, 9, Baxα or Bcl2”, the “HIF1α or VEGF under normoxic conditions” value (Caco-2 cells; [3]) was “no effect on HIF1α or VEGF” and the “ICAM1 levels under normoxic conditions” value (Caco-2 cells; normoxic, any of the cell lines tested (data not shown)) was “no effect on ICAM1 levels”. The Baxα (RIE1 cells) was 97.6 +/− 0.01 ** $ % normoxic, the Bcl2 (RIE1 cells) was 49.3 +/− 1.91 ** $$ % normoxic and the “Caspase 3” value (RIE1 cells) was 112.3 +/− 2.70 * % normoxic. The “Caspase 9” value (RIE1 cells) was 120.6 +/− 17.02 * $ % normoxic, the Claudin 1 (RIE1 cells) was 75.6 +/− 2.1 ** $$ % normoxic and the HIF1α (RIE1 cells) was 144.1 +/− 0.17 ** $$ % normoxic. The ICAM1 (RIE1 cells) was 115.4 +/− 1.09 ** % normoxic, the VEGF (RIE1 cells) was 121.8 +/− 2.53 ** $$ % normoxic and the ZO1 (RIE1 cells) was 83.6 +/− 0.69 * $ % normoxic. For the same substance, the hSP70 (RIE1 cells) was 122.9 +/− 0.85 ** % normoxic, the Baxα (AGS cells) was 110.9 +/− 2.79 * $ % normoxic and the Bcl2 (AGS cells) was 49.3 +/− 1.91 ** $$ % normoxic. For the same substance, the “Caspase 3” value (AGS cells) was 228.2 +/− 18.72 * $ % normoxic, the “Caspase 9” value (AGS cells) was 119.8 +/− 13.25 * $ % normoxic and the Claudin 1 (AGS cells) was 77.3 +/− 3.63 ** $$ % normoxic. The HIF1α (AGS cells) was 145.2 +/− 0.66 ** $$ % normoxic, the ICAM1 (AGS cells) was 113.6 +/− 0.12 **^ % normoxic and the VEGF (AGS cells) was 125.82 +/− 2.0 ** $$ % normoxic. The ZO1 (AGS cells) was 82.1 +/− 0.98 ** $ % normoxic, the hSP70 (AGS cells) was 132.9 +/− 1.05 ** $ % normoxic and the DSS-induced colitis (DSS-induced colitis) was “reduces NSAID-induced gastric injury and DSS-induced colitis”. For the same substance, the migration and invasion (bladder cancer) was “causes autocrine-mediated migration and invasion in bladder cancer”, the “phosphorylation of signalling proteins” value (bladder cancer) was “phosphorylates the EGF receptor, Akt2 and Akt3, and ERK1 and ERK2” and the Baxα (renal tissue) was 5.61 ± 0.63 pg/μg total protein. The Bcl2 (renal tissue) was 66.37 ± 4.89 pg/μg total protein, the “Caspase 3 activity” value (renal tissue) was 0.069 ± 0.019 Change in absorbance and the “Caspase 9 activity” value (renal tissue) was 0.053 ± 0.010 Change in absorbance. The “Claudin 1” value (renal tissue) was 0.154 ± 0.016 pg/μg total protein, the MDA (renal tissue) was 0.47 ± 0.047 nmol/μg of protein and the ZO1 (renal tissue) was 0.151 ± 0.008 pg/μg total protein. For the same substance, the hSP70 (renal tissue) was 36.6 ± 2.96 pg/μg total protein, the ICAM1 levels (50% SI (clamped region); 50% SI clamped (gut), PSTI 20 μg/kg ip, vs I/R without PSTI) was “did not affect increased ICAM1; also recorded: no effect on these results; also recorded: did not affect ICAM1 levels” and the “histological damage of small intestine” value (50% SI (clamped region); 50% SI clamped, PSTI 20 μg/kg ip 1 h before clamping, vs I/R without PSTI) was “much less extensive damage; also recorded: protective effects; also recorded: significantly reduced histological scoring”. The Baxα levels (50% SI (clamped region); [4]) was “truncated the increase; also recorded: significantly decreased the damaging pro-apoptotic Baxα activity”, the Bcl2 levels (50% SI (clamped region); [4]) was “maintained levels; also recorded: significantly increased the protective anti-apoptotic Bcl2 activity” and the “Caspase 3 levels” value (50% SI (clamped region); [4]) was “virtually eliminated; also recorded: significantly decreased Caspase 3 activity”. For the same substance, the “Caspase 9 levels” value (50% SI (clamped region); [4]) was “virtually eliminated; also recorded: significantly decreased Caspase 9 activity”, the Claudin1 levels (50% SI (clamped region); [4]) was “virtually completely prevented; also recorded: significantly increased the protective Claudin1” and the HIF1α levels (50% SI (clamped region); [4]) was “further increasing HIF1α and VEGF; also recorded: significantly increased the protective HIF1α”. For the same substance, the MDA levels (50% SI (clamped region); [4]) was “this increase was truncated; also recorded: significantly reduced MDA levels”, the MPO levels (50% SI (clamped region); [4]) was “significantly reducing these changes; also recorded: significantly reduced MPO levels” and the VEGF levels (50% SI (clamped region); [4]) was “further increasing HIF1α and VEGF; also recorded: significantly increased the protective VEGF”. The ZO1 levels (50% SI (clamped region); [4]) was “virtually completely prevented; also recorded: significantly increased the protective ZO1”, the hSP70 levels (50% SI (clamped region); [4]) was “Additional increases in hSP70 expression; also recorded: significantly increased the protective hSP70” and the “reduction of all injury markers” value (50% SI (clamped region); gut, lung, kidney (necrosis, MDA, MPO), PSTI 20 μg/kg, p<0.01) was 50-80%. For the same substance, the “histological and biochemical markers of injury in gut, lung and kidney” value (50% SI (clamped region); pre-treatment with PSTI) was “significantly reduced histological and biochemical markers of injury”.
